Measurements published in patent US20260345723A1, “Treatments for Opioid-Induced Respiratory Depression” (priority 2023, published 2026).
Where two headings read alike, the source gives them in different places.

How the values were obtained:
CCR2 [1] = conditions: CCR2, monocyte chemotaxis; read-out: half maximal inhibitory concentration IC50; cited from earlier work
[2] = format: in vivo, rats and guinea pigs
[3] = test system: heroin self-administration; experiment: Heroin intravenous self-administration (FR and PR); format: in vivo, rat (male Sprague Dawley); conditions: RAP-103 1 mg/kg IP
Source text: Adult male Sprague Dawley (226-275 g) were purchased from Taconic Laboratories and maintained on a 12-hour/12-hour light/dark cycle with the lights off at 9:30 a.m. in a temperature- and humidity-controlled animal care facility. For the duration of the experiment, rats were housed two per cage and given unrestricted access to food and water at all times when in the home cage.
Rats were anesthetized using vaporized isoflurane delivered via nebulizer. An indwelling silastic catheter was threaded subcutaneously over the shoulder blade, inserted in the jugular vein and sutured in place. The catheter routed to a cotton back mount platform that was sutured below the skin between the shoulder blades. Post-operation, catheters were flushed daily with 0.2 ml of timentin (0.93 mg/mL) dissolved in heparinized saline and covered with magnetic aluminum caps.
Following 5 days of post-operative recovery, rats began daily intravenous self-administration of heroin in Med-Associates operant chambers for at least 10 d. […] During IVSA, infusions of 0.1 mg/kg/inf heroin were rewarded to the animal after pressing the active lever. […]
Progressive ratio (PR) schedules of drug delivery are used to determine the ‘motivational’ state of an animal and drug reinforcing efficacy. […] BP is a dependent measure used to quantify the degree to which the subject will work to get the next administration of the drug which serves as a reinforcer in the self-administration paradigm. […]
(§1) Respiratory depression data were analyzed by two-way ANOVA (RAP-103 pretreatment×morphine treatment) followed by a Bonferroni's multiple comparison test. Physical dependence data were analyzed by a Student's t-test. Self-administration (SA) time-course data for heroin and sucrose were analyzed by two-way ANOVA (RAP-103 treatment x day) followed by a Bonferroni's multiple comparison test. SA PR challenge data were analyzed by a Student's t-test. Protein and mRNA data were analyzed by two-way ANOVA (RAP-103 pretreatment x morphine treatment) followed by a Newman-Keuls post-hoc analysis. […]

[4] = test system: tyrosine hydroxylase (TH); experiment: TH protein levels in mesolimbic pathway, morphine abstinence (Western blot); format: in vivo, rat; conditions: RAP-103 + morphine, vs drug-naïve (P<0.05) and morphine only (P<0.01)
Procedure: For 10 d, rats were given two injections during the dark cycle. One injection (RAP-103 [1 mg/kg] or saline) was delivered IP, and 5 min later the second injection (morphine [5 mg/kg] or saline) was given SC. Brain tissue was collected 24 h after the last morphine or saline injection for protein analysis of chemokine and opioid markers in the ventral tegmental area (VTA), nucleus accumbens (NAC) and prefrontal cortex (PFC).
For immunoblotting experiments, tissue lysates were obtained using RIPA buffer, and were then homogenized. Samples were centrifuged for 15 minutes at 12,000 g. Supernatant were transferred to new tubes. […] Immunoreactive bands were quantified by Image Studio (Licor Ver 2.0) and normalized to the bands of GAPDH. […]
as §1

[5] = test system: mu-opioid receptor (OPRM1)
pain pathways = conditions: cited from earlier work
CCR2 [6] = test system: CCR2
[7] = RAP-103/morphine exposure, P>0.05
[8] = RAP-103 only vs drug-naïve, P>0.05

Substance: D-Thr-D-Thr-D-Asn-D-Tyr-D-Thr [RAP-103]
- IC50 (CCR2 [1]): 4.2 pM
- GFAP mRNA, PFC (GFAP mRNA; [7]): significant changes in GFAP or IBA1 were not detected
- GFAP gene expression, NAC (GFAP mRNA; RAP-103 pretreatment + morphine, P<0.05): normalized the augmentation in GFAP gene expression
- GFAP mRNA levels, VTA (GFAP mRNA; RAP-103 pretreatment, morphine-naïve and morphine-treated rats, vs drug-naïve, P<0.05): significantly reduced GFAP mRNA levels
- persistence at therapeutic levels in brain ([2]; IV or oral gavage, rats and guinea pigs (FIG. 10A)): at least 24 hrs
- brain entry compared to plasma levels ([2]; in vivo): preferentially enters the brain
- responding on the inactive lever [3]: did not impact responding on the inactive lever
- heroin PR breakpoint ([3]; PR challenge, P<0.05 vs saline): significantly lower breakpoints
- active lever responding (heroin SA, FR-1) ([3]; heroin 0.1 mg/kg/inf, days 8 (P<0.05), 9 and 10 (P<0.001)): significantly reduced active lever responding
- TH protein levels, PFC [4]: significantly elevated
- OPRM1 protein levels, PFC ([5]; RAP-103 + morphine, vs drug-naïve (P<0.01) and morphine only (P<0.05)): significantly elevated
- OPRM1 protein levels, VTA ([5]; RAP-103 pretreatment 1 mg/kg IP + morphine, P<0.05): normalized the morphine-induced enhancement in OPRM1 levels
- monocyte infiltration (pain pathways): reduces
- spinal microglial activation (pain pathways): reduces
- IBA1 mRNA levels, NAC (IBA1 mRNA; RAP-103 + morphine vs drug-naïve and morphine by itself, P<0.01): significantly enhanced
- IBA1 mRNA, PFC (IBA1 mRNA; [7]): significant changes in GFAP or IBA1 were not detected
- IBA1 mRNA levels, VTA (IBA1 mRNA; RAP-103 pretreatment vs drug-naïve, P<0.05): significantly increased IBA1 mRNA levels
- microglial mRNA levels, VTA and NAC (IBA1 mRNA; morphine-naïve and morphine-abstinent rats): enhanced microglial mRNA levels
- CCR2 protein levels, VTA (CCR2 [6]; RAP-103 1 mg/kg IP + morphine): did not alter morphine enhancement of CCR2
- CCR2 protein levels, PFC (CCR2 [6]; RAP-103 by itself vs drug-naïve, P<0.05): reduction in CCR2 protein levels
- CCR2 protein levels, NAC (CCR2 [6]; [8]): did not display significantly different levels
- CCR2 protein levels, VTA (CCR2 [6]; [8]): not significantly different
- CCR2 protein levels, NAC (CCR2 [6]; RAP-103 pretreatment 1 mg/kg IP + morphine, P<0.01): normalized morphine-induced deficits in CCR2 levels
